These results are taken from PubChem BioAssay (NCI).

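Where inhibition never reached the appropriate level, the endpoint shown equals the highest concentration tested. Otherwise, values were interpolated linearly from a five-concentration, 48-hour dose response in 96-well plates. TGI is the concentration that stops growth completely.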

Some test systems named below: A498 renal; ACHN renal; HOP-92 NSCLC; K-562 leukemia; M14 melanoma; MALME-3M melanoma; NCI/ADR-RES ovarian; SK-MEL-2 melanoma; SW-620 colon; UO-31 renal.
What all share (test): NCI tumour cell line growth inhibition, 48 h

As for `CCC(c1c[nH]c2ccc(Br)cc12)c1c[nH]c2ccc(Br)cc12`, the TGI amounted to 13.3 µM in the test on A498 renal; 12.8 µM with ACHN renal; 8.3 µM in the test with HOP-92 NSCLC; 6.57 µM in the test with K-562 leukemia; 14.2 µM in the test with M14 melanoma; 24.9 µM in the test with MALME-3M melanoma. Also, the TGI in the test on NCI/ADR-RES ovarian amounted to 13.3 µM; in the test with SK-MEL-2 melanoma, 23.1 µM; in the test with SW-620 colon it was 19.1 µM; with UO-31 renal, 18.7 µM.
For `Nc1nc(Cl)c(N)c(NCC2(CO)CC(CCCc3ccccc3)C2)n1` (configuration not stated), the TGI in the test on A498 renal was 66.1 µM; in the test on ACHN renal, 99.7 µM; with HOP-92 NSCLC, greater than 100 µM; in the test with K-562 leukemia, greater than 100 µM; in the test with M14 melanoma, greater than 53.4 µM; in the test with MALME-3M melanoma it was 9.92 µM. Also, the TGI in the test with NCI/ADR-RES ovarian is 63.1 µM; with SK-MEL-2 melanoma, 30.6 µM; in the test with SW-620 colon, greater than 100 µM; with UO-31 renal, greater than 100 µM.
Consider `CN(CCCNC(=O)c1nn(-c2ccc(Cl)cc2Cl)c2c1Cc1ccccc1-2)CCCNC(=O)c1nn(-c2ccc(Cl)cc2Cl)c2c1Cc1ccccc1-2`, for which the TGI stood at 3.13 µM in the test with A498 renal; 3.06 µM in the test with HOP-92 NSCLC; 2.97 µM in the test on K-562 leukemia; 3.47 µM with M14 melanoma; 3.35 µM in the test with MALME-3M melanoma; 3.55 µM in the test with NCI/ADR-RES ovarian. Further, the TGI turned out to be 3.2 µM in the test on SK-MEL-2 melanoma, 3.06 µM with SW-620 colon and 3.59 µM in the test with UO-31 renal.
With `COc1nc(N)c(N=CC(OC(C)=O)C(OC(C)=O)C(COC(C)=O)OC(C)=O)c(=O)n1C` (configuration not stated), the TGI in the test on A498 renal, with ACHN renal, with HOP-92 NSCLC, with K-562 leukemia, with M14 melanoma and with MALME-3M melanoma was greater than 100 µM in each case. For the same compound, the TGI in the test on NCI/ADR-RES ovarian, in the test with SK-MEL-2 melanoma, in the test on SW-620 colon and in the test with UO-31 renal was greater than 100 µM throughout.
For the compound `Cc1ccc(/C(O)=C/C(=O)C(=O)NN=C(c2ccccc2)c2ccccc2)cc1`, the TGI in the test with A498 renal, with ACHN renal, in the test on HOP-92 NSCLC, in the test with K-562 leukemia, in the test on M14 melanoma and in the test with MALME-3M melanoma was greater than 100 µM in each case. Also, the TGI with NCI/ADR-RES ovarian, with SK-MEL-2 melanoma, in the test on SW-620 colon and in the test on UO-31 renal was greater than 100 µM in each case.
Regarding `CSCCC(NC(=O)Cc1ccc(C(=O)c2ccccc2)cc1)C(=O)O` (configuration not stated), the TGI with A498 renal, in the test with ACHN renal, in the test on HOP-92 NSCLC, in the test with K-562 leukemia, in the test on M14 melanoma and with MALME-3M melanoma was greater than 100 µM in each case. Further, the TGI in the test with NCI/ADR-RES ovarian, with SK-MEL-2 melanoma, with SW-620 colon and with UO-31 renal was greater than 100 µM each time.
Take `CCN(CC)Cc1sc2nc3ccccc3n2c1-c1ccc(OC)cc1`: the TGI with A498 renal is 71.6 µM; with ACHN renal, greater than 100 µM; in the test on HOP-92 NSCLC, greater than 100 µM; in the test with K-562 leukemia it was 22.7 µM; in the test with M14 melanoma, greater than 100 µM; in the test on MALME-3M melanoma, greater than 100 µM. The TGI with NCI/ADR-RES ovarian was 90.8 µM; with SK-MEL-2 melanoma, greater than 100 µM; in the test on SW-620 colon it was greater than 100 µM; with UO-31 renal, greater than 100 µM.
Turning to `COc1cc(/C=C(/C#N)C(N)=O)ccc1O`, the TGI in the test with A498 renal, in the test with HOP-92 NSCLC, in the test on K-562 leukemia, with MALME-3M melanoma, with NCI/ADR-RES ovarian and in the test with SK-MEL-2 melanoma was greater than 100 µM in each case. Also, the TGI in the test on SW-620 colon and in the test on UO-31 renal was greater than 100 µM each time.
Regarding `c1ccc(CSCCc2ccncc2)cc1`, the TGI in the test on A498 renal, in the test with ACHN renal, in the test on HOP-92 NSCLC, with K-562 leukemia, in the test on M14 melanoma and with MALME-3M melanoma was greater than 100 µM throughout. Also, the TGI with NCI/ADR-RES ovarian, in the test on SK-MEL-2 melanoma, with SW-620 colon and with UO-31 renal was greater than 100 µM throughout.
As to `O=[As](O)(O)c1ccc(N=Nc2ccc(O)cc2)cc1`, the TGI in the test on A498 renal, in the test on ACHN renal, in the test with HOP-92 NSCLC, in the test with K-562 leukemia, in the test with M14 melanoma and with MALME-3M melanoma was greater than 100 µM each time. Further, the TGI in the test with NCI/ADR-RES ovarian, in the test on SK-MEL-2 melanoma, in the test with SW-620 colon and in the test on UO-31 renal was greater than 100 µM in each case.
In the case of `CCOc1cc(NC(C)=O)ccc1C(=O)NN1C(=O)C(Cl)C1c1ccco1` (configuration not stated), the TGI amounted to 30.8 µM in the test with A498 renal; 29.1 µM in the test with ACHN renal; 35.3 µM with HOP-92 NSCLC; 51.3 µM in the test on K-562 leukemia; 36.8 µM in the test with M14 melanoma; 24.6 µM in the test on MALME-3M melanoma. Further, the TGI was greater than 100 µM in the test with NCI/ADR-RES ovarian, 37.3 µM in the test with SK-MEL-2 melanoma, greater than 100 µM in the test with SW-620 colon and 11.5 µM with UO-31 renal.
Consider `CCOP(=O)(OCC)C(C)(CC)NC` (configuration not stated), for which the TGI in the test on A498 renal, in the test with ACHN renal, in the test on HOP-92 NSCLC, in the test with K-562 leukemia, with M14 melanoma and with MALME-3M melanoma was greater than 100 µM in each case. The TGI in the test with NCI/ADR-RES ovarian, in the test on SK-MEL-2 melanoma, in the test with SW-620 colon and with UO-31 renal was greater than 100 µM each time.
In the case of `FC(F)(F)c1ccc2nc(Sc3ccccn3)cnc2c1`, the TGI in the test on A498 renal is 54.1 µM; in the test with ACHN renal it was 52.9 µM; with HOP-92 NSCLC it was greater than 100 µM; in the test on K-562 leukemia, greater than 100 µM; with M14 melanoma it was greater than 100 µM; with MALME-3M melanoma it was greater than 100 µM. Moreover, the TGI in the test on NCI/ADR-RES ovarian was greater than 100 µM; in the test on SK-MEL-2 melanoma, 31.1 µM; in the test with SW-620 colon it was greater than 100 µM; in the test with UO-31 renal, greater than 100 µM.
